From patent US20100298141A1, “SUBSTITUTED PYRIDINE N-OXIDE HERBICIDES” (E. I. DU PONT DE NEMOURS AND COMPANY, priority 2007, published 2010)

Columns and labels:
Assay in all cases: Test F preemergence test
dallisgrass = format: in vivo, Paspalum dilatatum; conditions: scale 0 to 100
In short: (§1)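 Test chemicals were formulated in a non-phytotoxic solvent mixture with surfactant and applied preemergence to planted seeds or postemergence to sugarcane plants. Plants were kept in a greenhouse for 14 to 21 days, then visually evaluated against controls.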

Virginia dayflower = format: in vivo, Commelina virginica; conditions: Preemergence, scale 0 to 100
In short: as §1

barnyardgrass = format: in vivo, Echinochloa crus-galli; conditions: scale 0 to 100
In short: as §1

broadleaf signalgrass = format: in vivo, Brachiaria platyphylla; conditions: scale 0 to 100
In short: as §1

common groundsel = format: in vivo, Senecio vulgaris; conditions: scale 0 to 100
In short: as §1

guineagrass = format: in vivo, Panicum maximum; conditions: scale 0 to 100
In short: as §1

bermudagrass = format: in vivo, Cynodon dactylon; conditions: scale 0 to 100
In short: as §1

quackgrass = format: in vivo, Elytrigia repens; conditions: scale 0 to 100
In short: as §1

common purslane = format: in vivo, Portulaca oleracea; conditions: scale 0 to 100
In short: as §1

naked crabgrass = format: in vivo, Digitaria nuda; conditions: scale 0 to 100
In short: as §1

common chickweed = format: in vivo, Stellaria media; conditions: scale 0 to 100
Description: Seeds of plant species selected from bermudagrass (Cynodon dactylon), Surinam grass (Brachiaria decumbens), large crabgrass (Digitaria sanguinalis), green foxtail (Setaria viridis), goosegrass (Eleusine indica), johnsongrass (Sorghum halepense), kochia (Kochia scoparia), pitted morningglory (Ipomoea lacunosa), purple nutsedge (Cyperus rotundus), common ragweed (Ambrosia elation), mustard (Brassica nigra), guineagrass (Panicum maximum), […] (Paspalum dilatatum), barnyardgrass (Echinochloa crus-galli), southern sandbur (Cenchrus echinatus), common sowthistle (Sonchus oleraceous), prickly […] spinosa), Italian ryegrass (Lolium multiflorum), common purslane (Portulaca oleracea), broadleaf signalgrass (Brachiaria platyphylla), common groundsel (Senecio vulgaris), common chickweed (Stellaria media), Virginia dayflower (Commelina virginica), annual bluegrass (Poa annua), naked crabgrass (Digitaria nuda), […] cochinchinensis), quackgrass (Elytrigia repens), Canada horseweed (Conyza canadensis), field bindweed (Convolvulus arvensis), […] (Bidens bipinnata), common mallow (Malva sylvestris), Russian thistle (Salsola kali), and sugarcane (Saccharum officinarum) were planted and treated preemergence with test chemicals formulated in a non-phytotoxic solvent mixture which included a surfactant. At a different time, sugarcane was treated with postemergence applications of some of the test chemicals formulated in the same manner. Plants were approximately 3- to 4-leaf stage for the postemergence treatments. Treated plants and controls were maintained in a greenhouse for 14 to 21 days, after which time all species were compared to controls and visually evaluated. […] A dash (-) response means no test result.

pitted morningglory = format: in vivo, Ipomoea lacunosa; conditions: scale 0 to 100
In short: as §1

common mallow = format: in vivo, Malva sylvestris; conditions: Preemergence, scale 0 to 100
In short: as §1

prickly sida = format: in vivo, Sida spinosa; conditions: scale 0 to 100
In short: as §1

mustard = format: in vivo, Brassica nigra; conditions: scale 0 to 100
In short: as §1

purple nutsedge = format: in vivo, Cyperus rotundus; conditions: scale 0 to 100
In short: as §1

kochia = format: in vivo, Kochia scoparia; conditions: scale 0 to 100
In short: as §1

annual bluegrass = format: in vivo, Poa annua; conditions: scale 0 to 100
In short: as §1

CC(c1c(C(F)(F)F)nn(C)c1OC(F)F)S(=O)(=O)c1cccc[n+]1[O-] (stereo not drawn) [Compound 5]
65: Plant response rating, Dallisgrass (dallisgrass; Preemergence, 16 g ai/ha) | Plant response rating, Dayflower (Virginia dayflower; 16 g ai/ha) | Purslane plant response rating (common purslane; 62 g ai/ha, Preemergence)
90: Plant response rating, Dayflower (Virginia dayflower; 31 g ai/ha) | Mallow plant response rating (common mallow; 62 g ai/ha) | Purple Nutsedge plant response rating (purple nutsedge; 62 g ai/ha, Preemergence)
75: Plant response rating, Dallisgrass (dallisgrass; Preemergence, 31 g ai/ha) | Plant response rating, Barnyardgrass (barnyardgrass; Preemergence, 16 g ai/ha) | Signalgrass plant response rating (broadleaf signalgrass; 62 g ai/ha, Preemergence) | Plant response rating, Black Mustard (mustard; Preemergence, 31 g ai/ha) | Plant response rating, Purple Nutsedge (purple nutsedge; Preemergence, 31 g ai/ha) | Bluegrass plant response rating (annual bluegrass; 62 g ai/ha, Preemergence) | Plant response rating, Bluegrass (annual bluegrass; Preemergence, 31 g ai/ha)
85: Quackgrass plant response rating (quackgrass; 62 g ai/ha, Preemergence) | Black Mustard plant response rating (mustard; 62 g ai/ha, Preemergence)
50: Plant response rating, Bermudagrass (bermudagrass; Preemergence, 16 g ai/ha) | Plant response rating, Quackgrass (quackgrass; Preemergence, 16 g ai/ha) | Plant response rating, Purslane (common purslane; Preemergence, 31 g ai/ha) | Plant response rating, Morningglory (pitted morningglory; Preemergence, 16 g ai/ha) | Plant response rating, Morningglory (pitted morningglory; Preemergence, 31 g ai/ha) | Plant response rating, Prickly Sida (prickly sida; Preemergence, 16 g ai/ha)
80: Morningglory plant response rating (pitted morningglory; 62 g ai/ha, Preemergence)
98: Dallisgrass plant response rating (dallisgrass; 62 g ai/ha, Preemergence) | Plant response rating, Barnyardgrass (barnyardgrass; Preemergence, 31 g ai/ha)
95: Plant response rating, Crabgrass, Naked (naked crabgrass; Preemergence, 16 g ai/ha)
100: Dayflower plant response rating (Virginia dayflower; 62 g ai/ha) | Barnyardgrass plant response rating (barnyardgrass; 62 g ai/ha, Preemergence) | Plant response rating, Groundsel (common groundsel; 8 g ai/ha, preemergence) | Groundsel plant response rating (common groundsel; 62 g ai/ha, Preemergence) | Plant response rating, Groundsel (common groundsel; Preemergence, 16 g ai/ha) | Plant response rating, Groundsel (common groundsel; Preemergence, 31 g ai/ha) | Guineagrass plant response rating (guineagrass; 62 g ai/ha, Preemergence) | Plant response rating, Guineagrass (guineagrass; Preemergence, 16 g ai/ha) | Plant response rating, Guineagrass (guineagrass; Preemergence, 31 g ai/ha) | Bermudagrass plant response rating (bermudagrass; 62 g ai/ha, Preemergence) | Plant response rating, Bermudagrass (bermudagrass; Preemergence, 31 g ai/ha) | Crabgrass, Naked plant response rating (naked crabgrass; 62 g ai/ha, Preemergence) | Plant response rating, Crabgrass, Naked (naked crabgrass; Preemergence, 31 g ai/ha) | Plant response rating, Chickweed (common chickweed; 8 g ai/ha, preemergence) | Chickweed plant response rating (common chickweed; 62 g ai/ha, Preemergence) | Plant response rating, Chickweed (common chickweed; Preemergence, 16 g ai/ha) | Plant response rating, Chickweed (common chickweed; Preemergence, 31 g ai/ha) | Prickly Sida plant response rating (prickly sida; 62 g ai/ha, Preemergence) | Plant response rating, Prickly Sida (prickly sida; Preemergence, 31 g ai/ha)
20: Plant response rating, Guineagrass (guineagrass; 8 g ai/ha, preemergence) | Plant response rating, Bluegrass (annual bluegrass; Preemergence, 16 g ai/ha)
30: Plant response rating, Signalgrass (broadleaf signalgrass; 16 g ai/ha, preemergence) | Plant response rating, Purple Nutsedge (purple nutsedge; 8 g ai/ha, preemergence)
25: Plant response rating, Bermudagrass (bermudagrass; 8 g ai/ha, preemergence) | Plant response rating, Mallow (common mallow; 16 g ai/ha)
10: Plant response rating, Quackgrass (quackgrass; 8 g ai/ha, preemergence)
35: Plant response rating, Signalgrass (broadleaf signalgrass; Preemergence, 31 g ai/ha) | Plant response rating, Purslane (common purslane; Preemergence, 16 g ai/ha) | Plant response rating, Black Mustard (mustard; Preemergence, 16 g ai/ha)
40: Kochia plant response rating (kochia; 62 g ai/ha, Preemergence)
0: Plant response rating, Dallisgrass (dallisgrass; 8 g ai/ha, preemergence) | Plant response rating, Signalgrass (broadleaf signalgrass; 8 g ai/ha, preemergence) | Plant response rating, Purslane (common purslane; 8 g ai/ha, preemergence) | Plant response rating, Morningglory (pitted morningglory; 8 g ai/ha, preemergence) | Plant response rating, Prickly Sida (prickly sida; 8 g ai/ha, preemergence) | Plant response rating, Black Mustard (mustard; 8 g ai/ha, preemergence) | Plant response rating, Kochia (kochia; 8 g ai/ha, preemergence) | Plant response rating, Kochia (kochia; Preemergence, 16 g ai/ha) | Plant response rating, Kochia (kochia; Preemergence, 31 g ai/ha) | Plant response rating, Bluegrass (annual bluegrass; 8 g ai/ha, preemergence)
60: Plant response rating, Crabgrass, Naked (naked crabgrass; 8 g ai/ha, preemergence) | Plant response rating, Purple Nutsedge (purple nutsedge; Preemergence, 16 g ai/ha)
70: Plant response rating, Barnyardgrass (barnyardgrass; 8 g ai/ha, preemergence) | Plant response rating, Quackgrass (quackgrass; Preemergence, 31 g ai/ha)
